Structure (SMILES): COc1nc(N2CCN(C(=O)c3ccccc3C(F)(F)F)CC2)ccc1C(=O)NCCC1CC1 [Example 7, N-(2-cyclopropylethyl)-2-methoxy-6-(4-(2-trifluoromethylbenzoyl)piperazin-1-yl]nicotinamide]
- melting point: 49 to 51 °C
